The nature of data set [1]: Extraction of peptide out of polymer films with water, LC-MS. Type of data set: physicochemical. Conditions: 2 hours at 37° C. in 1 mL water, 4 mole % peptide.
Assay in data set [2]: as above
In kind it is physicochemical. Conditions: for peptide dissolved: 80 minutes at 37° C. in a total volume of 5 mL water, 4 mole % peptide; for extraction: water 37° C., 4 mole % peptide in film of polymer of example 14. The protocol: The extraction of the peptide of example 18 and the peptide GRGDS without a UPy-unit out of films of example 29a was investigated with LC-MS measurements. The amount of peptide that was mixed in the polymeric materials is in both cases 4 mole %. Calibration was performed by quantification of one fragment of the parent ion (MS^2) of the peptides using different concentrations of the peptides. The surface area of the corresponding peak (in the total ion count) was calculated with the ICIS algorithm. The extraction experiments were performed as follows: the film was incubated at 37° C. for 5 minutes in 1 mL water, then the water was removed and the concentration of peptide was measured with the described LC-MS procedure (time-point: 5 minutes); another 1 mL water was added to the film which was subsequently incubated again for 5 minutes at 37° C. followed by removal of the water which was analysed with the LC-MS method (time-point: 10 minutes); another 1 mL water was added to the film and the sample was incubated for 10 minutes at 37° C. followed by removal of the water which was analysed with the LC-MS method (time-point: 20 minutes); incubation at 37° C. in another 1 mL water for 20 minutes, followed by removal of the water which was analysed with the LC-MS method (time-point: 40 minutes); and incubation at 37° C. in another 1 mL water for 40 minutes, followed by removal of the water which was analysed with the LC-MS method (time-point: 80 minutes).

With UPy-GRGDS [Example 18], the figures for the peptide dissolved in data set [1] and in data set [2] were 64% and 76%, respectively. Further, the extraction was found to be 39% in data set [2] (time 5 min), 60% in data set [2] (time 10 min) and 76% in data set [2] (time 20 min).
For the substance GRGDS, the peptide dissolved in data set [1] was 101%; in data set [2], 105%. Also, the extraction in data set [2] (time 5 min) is on record as 91%; in data set [2] (time 10 min) it was 97%; in data set [2] (time 20 min), 100%. Besides, the “dissolution of peptide from film” value in data set [2] (within 5 minutes, water at 37° C.) is on record as “almost all of the peptide is dissolved”.

(Values after patent US9907637B2, “Modular bioresorbable or biomedical, biologically active supramolecular materials” (SupraPolix B.V., priority 2005, dated 2018).)
